Tests used:
melanoma cells = details: studies of Vujic et al., 2015; cited from earlier work
StHdh^Q111/Q111 cells = test: RUSH system: GPI-SBP-mCherry trafficking from endoplasmic reticulum to Golgi and plasma membrane; type: cell-based, mouse
Protocol: The RUSH plasmid (Boncompain et al., 2012) is a bicistronic plasmid (SEQ ID NO: 2) allowing the expression of two parts of the system: the reticulum-specific anchor (KDEL-streptavidin), and the reporter part (GPI-SBP-mCh). The addition of biotin in the extracellular medium (40 μM) induces the unhooking of the reporter part of the anchor, thus allowing to follow the intracellular trafficking in a synchronized way within a cell population from the endoplasmic reticulum.
For striatal StHdh cells, acute treatment was performed at 10 μM for 1 hour before and during the acquisition time. For neurons within the microchambers, treatments were started at DIV2 until DIV12 every day at 1 μM in each compartment of the microfluidic device.
The inventors used the Retention Using Selective Hooks (RUSH) system to study intracellular dynamics from the ER to the plasma membrane in Huntington's disease condition (FIG. 1A). RUSH allows tracking the synchronous release of a reporter molecule from specific intracellular compartments. In the present experiment, the inventors followed the release of glycosylphosphatidylinositol (GPI)-anchored fluorescence protein mCherry, and fused to streptavidin-binding peptide (SBP) that was retained into the ER compartment by the interaction with a “hook” protein composed of the KDEL motif fused to streptavidin. In the absence of biotin, the GPI-SBP-mCherry localizes at the ER (FIG. 1A). Addition of biotin to the cells expressing GPI-SBP-mCherry and KDEL-streptavidin causes a synchronous release of the GPI-SBP-mCherry reporter from the hook which then migrates to the Golgi apparatus and later to the plasma membrane.
To study these dynamics in the context of Huntington's disease, the inventors transfected the GPI-SBP-mCherry-KDEL-streptavidin construct as shown in SEQ ID NO:2 into immortalized striatal cells from Hdh^Q111/Q111 and Hdh^Q7/Q7 mice, referred to as StHdh^Q111/Q111 and StHdh^Q7/Q7 cells respectively. They then monitored GPI-SBP-mCherry trafficking by real-time imaging for 90 minutes. To assess intracellular trafficking dynamics, they quantified the kinetics of appearance and disappearance of mCherry fluorescence in the Golgi apparatus over time (FIGS. 1B and C). Shortly after biotin addition, GPI leaves the ER and moves to the Golgi apparatus. The inventors quantified fluorescence at the Golgi and observed that in StHdh^Q7/Q7 cells, the peak fluorescence was at 16.6 minutes, whereas it was delayed to 23.6 minutes in StHdh^Q111/Q111 cells (FIG. 1B). Their observations indicate a reduced trafficking of GPI from the ER to the Golgi apparatus as well as prolonged retention of GPI in the Golgi as evidenced by a longer period of GPI fluorescence in the Golgi apparatus.

APT2 = APT2 (Homo sapiens, UniProt O95372); details: read-out: IC50APT2; cited from earlier work
APT1 = APT1 (Homo sapiens, UniProt O75608); details: read-out: IC50APT1; cited from earlier work
[1] = StHdh^Q111/Q111 cells, inhibitor 10 μM 1 hour or siRNA gene silencing

Sequence of APT2 (O95372 whole entry): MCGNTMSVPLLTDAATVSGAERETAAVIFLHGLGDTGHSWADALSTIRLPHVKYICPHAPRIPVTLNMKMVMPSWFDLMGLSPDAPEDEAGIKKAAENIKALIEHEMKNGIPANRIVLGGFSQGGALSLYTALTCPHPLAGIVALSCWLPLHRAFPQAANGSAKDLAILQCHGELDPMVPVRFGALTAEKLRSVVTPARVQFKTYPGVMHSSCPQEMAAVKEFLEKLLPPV
Sequence of APT1 (O75608 whole entry): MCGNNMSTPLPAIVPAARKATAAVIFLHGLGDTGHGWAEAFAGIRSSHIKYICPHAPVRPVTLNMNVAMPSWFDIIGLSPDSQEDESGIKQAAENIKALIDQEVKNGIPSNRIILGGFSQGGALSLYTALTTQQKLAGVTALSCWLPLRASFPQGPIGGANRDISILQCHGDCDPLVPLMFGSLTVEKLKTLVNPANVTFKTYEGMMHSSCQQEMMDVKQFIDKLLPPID

## COc1ccc(N2CCN(C(=O)c3cc4c(s3)-c3ccccc3S(=O)(=O)C4)CC2)cc1 [ML-349]
Melanoma cells
  effect on melanoma cells: no biologically significant effect
StHdh^Q111/Q111 cells; [1]
  effect on kinetics from the endoplasmic reticulum to the Golgi apparatus: no effect
  effect on retention in the Golgi: no effect

## CCCCCCCCCC[C@@H]1C(=O)O[C@H]1CCc1ccc(OC)c(OC)c1 [Palmostatin B]
APT2
  IC50: 37.7 nM
StHdh^Q111/Q111 cells; StHdh^Q111/Q111 cells treated 1 hour with 10 μM, without treatment 23.2-23.3 min, StHdh^Q7/Q7 16.6 min
  time after biotin addition for the appearance of the fluorescence peak in the Golgi: 18 min
StHdh^Q111/Q111 cells; StHdh^Q111/Q111 cells treated 1 hour with 10 μM, without treatment 24-25.4 min, wild-type cells 15.1 min
  time for fluorescence to leave the Golgi apparatus (retention time in the Golgi): 21.3 min
APT1
  IC50: 5.4 nM

— patent US12551479B2, “Acyl-protein thioesterase inhibitor for the treatment and/or prevention of Huntington's disease” (UNIVERSITÉ GRENOBLE ALPES, priority 2019, dated 2026)
